Source: patent publication US11053250B2, “Pyrrolo[1,2-b]pyridazine derivatives” (Gilead Sciences, Inc., priority 2018, dated 2021)

Tests used:
IRAK4 enzyme = IRAK4 enzyme (Homo sapiens (Human), UniProt Q9NWZ3); assay: IRAK4 Biochemical Assay (TR-FRET/HTRF); details: 0.75 nM IRAK4, 500 μM ATP, STK1 peptide
Experimental: IRAK4 enzyme (Carna Biosciences, Chuo-ku, Kobe, Japan) activity was measured by detecting phosphorylated peptide substrate formation using an antibody against the phosphorylated peptide substrate. This is a time-resolved fluorescence resonance energy transfer (TR-FRET) immunoassay, based on the STK1 KinEASE Assay (Cisbio, Bedford, Mass.). The assay was designed as a simple two-step, endpoint assay (a 5 μl enzyme reaction followed by 5 μl stop and detect Solution) performed in ProxiPlate-384 Plus plates (Perkin Elmer, Waltham, Mass.). Staurosporine, a non-selective kinase inhibitor was used as a positive control. Compounds diluted in DMSO were spotted into 384 well plates using a Labcyte® Echo 550 Liquid Handling System prior to addition of IRAK4 enzyme and peptide substrate. Reaction solutions were delivered using a Multi-Flo (Bio-Tek Instruments). The enzyme and peptide solution was incubated with compound for 15 minutes at room temp before the reaction was initiated by the addition of ATP. The standard 5 μl reaction mixture contained 500 μM ATP, 2 μM peptide (STK1 Peptide), 0.75 nM of IRAK4 in reaction buffer (50 mM HEPES, pH 7.0, 0.02% NaN3, 0.01% BSA, 0.1 mM Orthovanadate, 5 mM MgCl2, 0.025% NP-40, 1 mM DTT). After 120 min of incubation at room temperature, 5 μl of Stop and Detect Solution (1:100 Cryptate labeled anti-phosphorylated peptide antibody solution and 125 nM Tracer in a 50 mM HEPES pH 7.0 detection buffer containing sufficient EDTA) was added. The plate was then further incubated for 60 minutes at room temperature and read on Envision 2103 Multilabeled reader (PerkinElmer) with excitation/emission/FRET emission at 340 nm/615 nm/665 nm, respectively. Fluorescence intensities at 615 nm and 665 nm emission wavelengths were expressed as a ratio (665 nm/615 nm). Percentage of inhibition was calculated as below: % Inhibition=100×(RatioSample−Ratio0% Inhibition)/(Ratio100% Inhibition−Ratio0% Inhibition)
The 0% inhibition value comes from control wells lacking inhibitor. The 100% inhibition value comes from control wells containing a saturating amount of known inhibitor staurosporine.

TNFα = assay: IRAK4 Monocyte TNFα Cell Based Assay; details: cryopreserved human monocytes, LPS 50 pg/ml stimulation, TNFα by TR-FRET
Experimental: The cell suspension was then plated at a density of 5,000 cells/well onto black 384 well Greiner clear bottom plates. Plates were pre-spotted with test compounds and serially diluted in DMSO where 40 nL/well were delivered using the Echo 550 acoustic liquid dispenser (Labcyte®) for a final DMSO concentration of 0.1%. Plated cells were treated with compound for 1 hour at 37° C. Cells were then stimulated with 50 pg/ml of LPS (Sigma) excluding outside columns of plate used for unstimulated cell control wells. Cells were incubated for an additional 4 hours at 37° C. Cells were then spun out of the media and 5 μl of sample were taken and analyzed for total TNFα content using the TR-FRET Human TNFα detection system (CisBio). This system utilizes two labeled antibodies (cryptate and XL665) that bind to two different epitopes of the TNFα molecule and produce FRET signal proportional to the concentration of TNFα in the sample. Detection antibodies are mixed 50:50 and 5 μL were dispensed into each well. Plates were covered with clear seals and incubated at room temp overnight. The following morning plates were read using an Envision 2103 Multilabeled reader (PerkinElmer) with excitation/emission/FRET emission at 340 nm/615 nm/665 nm, respectively. Fluorescence intensities at 615 nm and 665 nm emission wavelengths were expressed as a ratio (665 nm/615 nm). Percent of control was calculated as follows: % Control=100×(RatioSample−Ratio0% stimulation)/(Ratio100% Stimulation−Ratio0% stimulation) where unstimulated cells (0% stimulation) were the negative control and stimulated cells (100% stimulation) were used as the positive control.

IRAK4 enzyme, sequence (Q9NWZ3 whole entry): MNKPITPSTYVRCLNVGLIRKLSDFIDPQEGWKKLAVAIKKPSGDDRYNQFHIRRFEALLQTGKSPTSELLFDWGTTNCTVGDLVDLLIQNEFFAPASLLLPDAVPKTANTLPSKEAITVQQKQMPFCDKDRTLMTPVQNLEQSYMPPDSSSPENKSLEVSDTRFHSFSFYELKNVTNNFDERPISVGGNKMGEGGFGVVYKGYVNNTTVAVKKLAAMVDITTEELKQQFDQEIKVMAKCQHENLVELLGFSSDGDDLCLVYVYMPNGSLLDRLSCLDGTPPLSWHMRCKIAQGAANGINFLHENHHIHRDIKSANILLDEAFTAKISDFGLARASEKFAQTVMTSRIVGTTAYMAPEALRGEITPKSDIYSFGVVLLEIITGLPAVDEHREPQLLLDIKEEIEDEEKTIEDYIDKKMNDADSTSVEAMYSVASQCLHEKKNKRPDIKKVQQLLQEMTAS

Row | Molecule | IC50 (IRAK4 enzyme) | EC50 (TNFα) | EC50 (TNFα; Monocyte)
1 | 7-(4-(isopropylamino)-5-(1-propyl-1H-1,2,3-triazol-4-yl)pyridin-2-yl)pyrrolo[1,2-b]pyridazine-3-carbonitrile [Compound 54] | 1 nM | 90 nM | –
2 | C[C@H](C#N)Nc1cc(-c2ccc3cc(C#N)cnn23)ncc1-c1cn(C[C@@H](F)C(C)(C)O)nn1 [Compound 1, 7-(4-(((R)-1-cyanoethyl)amino)-5-(1-((R)-2-fluoro-3-hydroxy-3-methylbutyl)-1H-1,2,3-triazol-4-yl)pyridin-2-yl)pyrrolo[1,2-b]pyridazine-3-carbonitrile] | < 1 nM | – | 12 nM
3 | CC(C)(O)[C@H](F)Cn1cc(-c2cnc(-c3ccc4cc(C#N)cnn34)cc2NCC#N)nn1 [Compound 2, (R)-7-(4-((cyanomethyl)amino)-5-(1-(2-fluoro-3-hydroxy-3-methylbutyl)-1H-1,2,3-triazol-4-yl)pyridin-2-yl)pyrrolo[1,2-b]pyridazine-3-carbonitrile] | 1 nM | – | 15 nM
4 | CC(C)(O)[C@H](F)Cn1cc(-c2cnc(-c3ccc4cc(C#N)cnn34)cc2N[C@H]2CC[C@H](c3nnc(C(F)F)o3)CC2)nn1 [Compound 3, 7-(4-(((1r,4R)-4-(5-(difluoromethyl)-1,3,4-oxadiazol-2-yl)cyclohexyl)amino)-5-(1-((R)-2-fluoro-3-hydroxy-3-methylbutyl)-1H-1,2,3-triazol-4-yl)pyridin-2-yl)pyrrolo[1,2-b]pyridazine-3-carbonitrile] | 2 nM | 20 nM | –
5 | COC(=O)NC[C@H]1C[C@H](Nc2cc(-c3ccc4cc(C#N)cnn34)ncc2-c2cn(C(F)F)nn2)C1 [Compound 4, methyl (((1r,3r)-3-((2-(3-cyanopyrrolo[1,2-b]pyridazin-7-yl)-5-(1-(difluoromethyl)-1H-1,2,3-triazol-4-yl)pyridin-4-yl)amino)cyclobutyl)methyl)carbamate] | 2 nM | 130 nM | –
6 | CC(C)(O)CCn1cc(-c2cnc(-c3ccc4cc(C#N)cnn34)cc2NC2COC2)nn1 [Compound 11, 7-(5-(1-(3-hydroxy-3-methylbutyl)-1H-1,2,3-triazol-4-yl)-4-(oxetan-3-ylamino)pyridin-2-yl)pyrrolo[1,2-b]pyridazine-3-carbonitrile] | – | – | 28 nM
7 | COC(=O)NC[C@H]1C[C@H](Nc2cc(-c3ccc4cc(C#N)cnn34)ncc2-c2cn([C@H]3CC[C@H](NC(=O)N4CCOCC4)CC3)nn2)C1 [Compound 17, methyl (((1R,3r)-3-((2-(3-cyanopyrrolo[1,2-b]pyridazin-7-yl)-5-(1-((1r,4R)-4-(morpholine-4-carboxamido)cyclohexyl)-1H-1,2,3-triazol-4-yl)pyridin-4-yl)amino)cyclobutyl)methyl)carbamate] | – | – | 5 nM
8 | CNc1cc(-c2ccc3cc(C#N)cnn23)ncc1-c1cn([C@H]2CC[C@H](NC(=O)OC(C)(C)C)CC2)nn1 [Compound 23, tert-butyl ((1r,4r)-4-(4-(6-(3-cyanopyrrolo[1,2-b]pyridazin-7-yl)-4-(methylamino)pyridin-3-yl)-1H-1,2,3-triazol-1-yl)cyclohexyl)carbamate] | 16 nM | – | –
9 | CC(C)Nc1cc(-c2ccc3cc(C#N)cnn23)ncc1-n1cc(CCC(C)(C)O)nn1 [Compound 62, 7-(5-(4-(3-hydroxy-3-methylbutyl)-1H-1,2,3-triazol-1-yl)-4-(isopropylamino)pyridin-2-yl)pyrrolo[1,2-b]pyridazine-3-carbonitrile] | – | – | 31 nM
10 | CC(=O)N1CCC(c2cn(-c3cnc(-c4ccc5cc(C#N)cnn45)cc3NC(C)C)nn2)CC1 [Compound 63, 7-(5-(4-(1-acetylpiperidin-4-yl)-1H-1,2,3-triazol-1-yl)-4-(isopropylamino)pyridin-2-yl)pyrrolo[1,2-b]pyridazine-3-carbonitrile] | – | – | 148 nM
